In patent US10675294B2, “Pharmaceutical composition containing 8 OXO-deoxyguanosine or pharmaceutically acceptable salt thereof as active ingredient for treating corneal disease” (GACHON UNIVERSITY OF INDUSTRY-ACADEMIC COOPERATION …, priority 2016, dated 2020):

Legend:
[1] = system: ethanol induced corneal injury mouse model; experiment: Visual and lysamine green staining observation of corneal epithelium surface; type: in vivo; conditions: 5 mg/ml and 10 mg/ml in the eye twice a day for a week; compared with control (PBS); FIG. 3
Procedure: (§1) Particularly, in order to construct a corneal injury mouse model using ethanol, a filter paper of 6 mm in diameter soaked in 100% ethanol was applied onto the cornea of the right eye of a female BALB/c mouse at 10 weeks of age for 30 seconds, followed by irrigation with PBS (phosphate-buffered saline) for 1 minute. In order to observe the defects of the corneal epithelium surface easily, the lysamine green reagent, which selectively stains the epithelium defect area, was treated on the surface of the damaged corneal epithelium and washed with physiological saline.
The 8-oxo-2′-deoxyguanosine compound prepared at the concentrations of 5 mg/ml and 10 mg/ml and the control PBS (phosphate-buffered saline) were applied into the eye of the ethanol induced corneal injury mouse model constructed in Example 1, respectively twice a day for a week, followed by observation with the naked eye and photographs (n=15 in each group).

[2] = system: ethanol induced corneal injury mouse model; experiment: Clinical index scoring of corneal epithelium damage recovery; type: in vivo
Procedure: as §1
8-oxo-dG was applied into the eye of the ethanol induced corneal injury mouse model for a week and then the recovery of the corneal epithelium damage was investigated. Particularly, the ethanol induced corneal injury mouse model examined in Experimental Example 1 was injected with Zoletil intramuscularly in order to anesthetize the mouse, followed by lysamine green staining on the cornea. Then, epithelial integrity and clarity of the corneal epithelium and corneal neovascularization were investigated and the results proceeded to clinical grading and scoring by items.
The corneal clarity was also evaluated and scored step by step. The indexes of the evaluation are as follows (Fantes et al, Arch Ophthalmol 1990).
In addition, in order to evaluate and score the degree of corneal neovascularization, the cornea was divided into quadrants as shown in FIG. 1. Based on the limbus between the cornea and the sclera, 0.5 points were assigned to each part of the newly formed vessels in the inside, followed by indexing and scoring (total 12 scores) (Li et al, Molecular Vision 2010).
During the application of 8-oxo-dG into the eye for a week, corneal staining was performed for a week to graphically identify the recovery of the corneal epithelial defects on daily basis.

[3] = system: ethanol induced corneal injury mouse model; experiment: Histological observation (H&E) of corneal tissue; type: in vivo; conditions: 5 mg/ml or 10 mg/ml in the eye twice a day for a week; n=2; FIGS. 5a, 5b
Procedure: as §1
The ethanol induced corneal injury mouse model constructed in Example 1 was administered with 8-oxo-dG in the eye at the concentration of 5 mg/ml or 10 mg/ml and the control PBS (phosphate-buffered saline), twice a day for a week. The corneal tissues were extracted and fixed in 10% paraformaldehyde, followed by washing with PBS. The tissues were embedded in paraffin and the paraffin block was stained with H&E (haematoxylin and eosin), followed by direct observation under the microscope. The stromal thickness was measured by using Image J software.

[4] = system: neutrophils, macrophages and T cells; experiment: Immunohistochemical staining of inflammatory cells in corneal tissue; type: in vivo, mouse; conditions: 5 mg/ml or 10 mg/ml in the eye twice a day for a week, compared with control
Procedure: as §1
Particularly, the ethanol induced corneal injury mouse model constructed in Example 1 was administered with 8-oxo-dG in the eye at the concentration of 5 mg/ml or 10 mg/ml and the control PBS (phosphate-buffered saline), twice a day for a week. The corneal tissues were extracted and fixed in 10% paraformaldehyde, followed by washing with PBS. The tissues were treated with anti-neutrophil elastase, anti CD3 and anti F4/80 antibodies (Abcam, Cambridge, UK), the markers of neutrophils, T lymphocytes and macrophages. After washing with PBS, the secondary antibody (REAL™ EnVision™ detection system, Dako) was applied thereto. […] The immunostained cells in each section were counted by hand by two skilled examiners and the numbers were averaged.

IL-1β = experiment: Inflammatory cytokine mRNA expression in corneal tissue by real time PCR; type: in vivo, mouse; conditions: 10 mg/ml in the eye twice a day for a week; compared with control; FIG. 7b
Procedure: as §1
(§2) Particularly, the ethanol induced corneal injury mouse model constructed in Example 1 was administered with 8-oxo-dG in the eye at the concentration of 5 mg/ml or 10 mg/ml and the control PBS (phosphate-buffered saline), twice a day for a week. The corneal tissue was extracted and homogenized with a sonicator (Ultrasonic Processor, Cole Parmer Instruments, Vernon Hills, Ill., USA). Then, corneal RNA was extracted by using RNeasy Mini kit (Qiagen, Valencia, Calif., USA). CDNA was synthesized with the same amount of RNA of each corneal sample and real-time PCR (ABI 7500 Real Time PCR System, Applied Biosystems, Carlsbad, Calif., USA) was performed. Taqman Gene Expression Assays were used for real-time PCR. The detailed inflammatory cytokines were as follows. […]

IL-6 = experiment: as above; type: in vivo, mouse; conditions: 5 mg/ml or 10 mg/ml in the eye twice a day for a week; three groups incl. PBS; FIG. 7c
Procedure: as §1, §2

TNF-α = experiment: as above; type: in vivo, mouse; conditions: 5 mg/ml or 10 mg/ml in the eye twice a day for a week; compared with control; FIG. 7a
Rac protein = conditions: exogenous 8-oxo-dG; previous experiments with animal models; cited from earlier work

Nc1nc2c([nH]c(=O)n2[C@H]2CC(O)[C@@H](CO)O2)c(=O)[nH]1 (some centres unmarked) [8-oxo-dG, 8-oxo-2′-deoxyguanosine]
corneal epithelium surface damage, lysamine green staining (after staining) [1]: reduced significantly by the treatment of 8-oxo-dG dose-dependently
corneal epithelium surface damage, naked eye (before staining) [1]: reduced by the treatment of 8-oxo-dG dose-dependently
neovascularization scoring index ([2]; 5 mg/ml or 10 mg/ml in the eye twice a day for a week, FIG. 4c): reduced in the group treated with 8-oxo-dG to some degree
epithelial integrity index score (defect of the corneal epithelium surface) ([2]; 5 mg/ml or 10 mg/ml in the eye twice a day for a week, compared with PBS, FIG. 4a): reduced in the group treated with 8-oxo-dG dose-dependently
corneal clarity scoring index ([2]; 5 mg/ml or 10 mg/ml in the eye twice a day for a week, lower index = improved clarity, FIG. 4b): reduced in the group treated with 8-oxo-dG dose-dependently
daily recovery of corneal epithelial defects (corneal staining index score) ([2]; 5 mg/ml or 10 mg/ml in the eye, daily corneal staining for a week, FIG. 4d): significantly reduced in the group treated with 8-oxo-dG dose-dependently
corneal epithelium tissue condition/thickness (H&E) [3]: restored to the normal level
number of cells stained with anti-neutrophil elastase (neutrophils) ([4]; FIG. 6a): reduced significantly
number of cells stained with anti F4/80 (macrophages) ([4]; FIG. 6b): reduced significantly
number of cells stained with anti CD3 (T cells) ([4]; FIG. 6c): not much different
expression of IL-1β mRNA (IL-1β): significantly reduced
expression of IL-6 mRNA (IL-6): not much different
expression of TNF-α mRNA (TNF-α): not significantly but slightly reduced
effect on Rac protein (GTPase) (Rac protein): inactivated Rac protein
